Results from US12624037B2, “Method of treating agitation, aggressive behavior, and impulse control disorder” (INTRA-CELLULAR THERAPIES, INC., priority 2012, dated 2026).

What was measured:
[1] = target: H1 (Homo sapiens, UniProt P35367); experiment: H1 receptor affinity (off-target); format: binding
[2] = test system: muscarinic receptors; experiment: Muscarinic receptor affinity; format: binding
[3] = test system: healthy volunteer and clinical populations; experiment: Safety and tolerability in healthy volunteer and clinical populations; format: in vivo, human
Text: Physical Risks: Side effects are listed in the informed consent and reviewed carefully with the subject.
(§1) Pregnant or nursing women are excluded and men and women of childbearing potential use birth control.

[4] = Randomized, double-blind, placebo-controlled single oral dose escalation study (safety, tolerability, pharmacokinetics); format: in vivo, human; settings: male, human, plasma; oral administration
Text: as §1

[5] = test system: healthy male volunteers; experiment: as above; format: in vivo, human
Text: as §1

[6] = test system: healthy male volunteers; experiment: Placebo-controlled multiple oral dose study, once daily for 5 days; format: in vivo, human
Text: as §1

[7] = target: cytochrome P450 3A4 (CYP3A4) (Homo sapiens, UniProt P08684); experiment: Metabolism by cytochrome P450; format: in vitro ADME
Chain of cytochrome P450 3A4 (CYP3A4) (P08684 whole entry): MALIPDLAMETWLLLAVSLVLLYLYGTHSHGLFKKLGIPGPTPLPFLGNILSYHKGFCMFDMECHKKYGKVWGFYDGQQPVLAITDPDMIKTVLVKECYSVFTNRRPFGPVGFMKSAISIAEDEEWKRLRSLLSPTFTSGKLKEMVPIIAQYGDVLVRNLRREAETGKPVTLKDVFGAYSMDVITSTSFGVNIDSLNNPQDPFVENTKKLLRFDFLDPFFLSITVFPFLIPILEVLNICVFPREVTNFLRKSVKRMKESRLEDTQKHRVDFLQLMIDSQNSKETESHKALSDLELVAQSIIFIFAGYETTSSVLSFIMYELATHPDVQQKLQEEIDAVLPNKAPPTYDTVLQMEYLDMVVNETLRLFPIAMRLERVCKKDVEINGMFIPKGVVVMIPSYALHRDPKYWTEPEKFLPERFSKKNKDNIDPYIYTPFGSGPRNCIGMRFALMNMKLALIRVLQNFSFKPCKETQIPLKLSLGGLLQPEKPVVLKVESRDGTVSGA

[8] = test system: any CYP enzyme; experiment: CYP enzyme inhibition; format: in vitro ADME
[9] = test system: veterans with non-remitting posttraumatic stress disorder; experiment: Open label study of Compound A as adjunctive treatment to SSRI in non-remitting PTSD; format: in vivo, human
Method: The target dose is 40 mg/d, but the dose is reduced to 20 mg/d as needed due to side effects. The study medication is stored and dispensed by the TVAMC pharmacy. The baseline SSRI medication is continued throughout the 12-wks study.
Baseline Procedures and Follow-up Assessments: Subjects are assessed by the investigators or trained clinical research coordinators with telephone contacts every two weeks and the assessments (indicated in the Table below) every four weeks.
Clinician Administered PTSD Scale (CAPS; Primary Outcome): A structured clinician-administered interview is used to assess frequency and intensity of 17 symptoms of PTSD. The CAPS is further subdivided into three clusters to allow scoring for Criterion B (re-experiencing), Criterion C (avoidant behaviors) and Criterion D (hyper-arousal). […]
In addition to change scores, rates of response (≥30% decrease in CAPS) and remission ([…]) are determined Within-group effect sizes using Cohen's d for the continuous outcomes is determined. The number needed to treat (NNT) for response and remission rates is determined. […]

[10] = test system: Mice; experiment: Social defeat/resident intruder paradigm, social isolation behavior; format: in vivo
Method: Mice are tested for social isolation behavior after repeated exposure (once daily for 10 days) to an aggressive resident intruder mouse in the social defeat/resident intruder paradigm as describe by Berton et al., Science (2006) 311:864-868, the contents of which are incorporated by reference. […] On the day after the last drug or vehicle treatment, the mice are placed in the open field in the presence of a resident intruder mouse and the animal's behavior recorded by videotape for 10 min. The videotapes are then scored for the total time each mouse spent during a 10 min period in specified open-field quadrants. The total time (sec) spent by mice representing each drug treatment group in the Interaction Zone in proximity to the resident intruder mouse or, in the Corner Zones, at a distance from the intruder mouse is expressed as a mean (±SEM).
In the experiment described or similarly described above, mice are subjected to exposure to an aggressive resident intruder mouse in the social defeat/resident intruder paradigm as described in Berton et al., Science (2006) 311:864-868. […] On the day after the last drug or vehicle treatment the mice are placed in the open field in the presence of a resident intruder mouse and the total time each mouse spent during a 10 min period in defined open-field quadrants in close proximity to the intruder or in isolation to the intruder is measured.

[11] = target: 5-HT2C receptor (Homo sapiens, UniProt P28335); settings: read-out: 5-HT2C Ki
Chain of 5-HT2C receptor (P28335 33-458): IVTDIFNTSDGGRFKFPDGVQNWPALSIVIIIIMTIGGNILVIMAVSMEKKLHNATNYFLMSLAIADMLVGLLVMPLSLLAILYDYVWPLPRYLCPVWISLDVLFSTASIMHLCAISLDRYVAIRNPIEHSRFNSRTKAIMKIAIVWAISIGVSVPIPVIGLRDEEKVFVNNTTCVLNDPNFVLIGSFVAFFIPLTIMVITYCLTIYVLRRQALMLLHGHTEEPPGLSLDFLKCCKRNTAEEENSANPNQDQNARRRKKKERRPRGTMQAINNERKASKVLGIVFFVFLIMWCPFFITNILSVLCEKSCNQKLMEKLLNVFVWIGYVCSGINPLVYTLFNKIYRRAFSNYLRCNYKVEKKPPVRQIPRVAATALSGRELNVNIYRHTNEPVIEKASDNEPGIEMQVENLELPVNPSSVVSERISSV

[12] = test system: Mice; settings: chronic administration; Berton et al., Science (2006); cited from earlier work
[13] = chronic treatment 1 mg/kg IP, 30 d

Chain of H1 (P35367 whole entry): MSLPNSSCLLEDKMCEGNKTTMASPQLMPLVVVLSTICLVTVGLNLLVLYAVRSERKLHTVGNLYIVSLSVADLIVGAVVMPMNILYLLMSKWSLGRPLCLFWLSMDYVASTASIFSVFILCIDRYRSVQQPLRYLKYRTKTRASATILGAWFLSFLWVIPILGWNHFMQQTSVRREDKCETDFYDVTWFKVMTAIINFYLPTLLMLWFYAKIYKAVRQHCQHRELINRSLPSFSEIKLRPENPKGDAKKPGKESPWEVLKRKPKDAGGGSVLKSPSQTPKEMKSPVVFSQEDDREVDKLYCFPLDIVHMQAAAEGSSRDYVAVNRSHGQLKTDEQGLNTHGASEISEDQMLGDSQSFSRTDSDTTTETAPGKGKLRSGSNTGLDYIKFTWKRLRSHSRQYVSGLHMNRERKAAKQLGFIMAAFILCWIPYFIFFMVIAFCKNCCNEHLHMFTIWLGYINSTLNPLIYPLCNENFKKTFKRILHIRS

CN1CCN2c3c(cccc31)[C@@H]1CN(CCCC(=O)c3ccc(F)cc3)CC[C@@H]12 [Compound A]
Ki [1]: > 1000 nM
affinity for muscarinic receptors [2]: no affinity
severity of adverse events ([3]; headache, dizziness, postural tachycardia, dry mouth, gastrointestinal complaints, somnolence): mild to moderate
hyper-prolactinemia ([3]; human, in vivo): does not produce hyper-prolactinemia
sexual dysfunction ([3]; human, in vivo): no reports of sexual dysfunction
safety and tolerability ([3]; range of doses 1-140 mg): safe and well-tolerated
cardiovascular side effects such as postural hypotension ([3]; related to alpha 1A activity, to date): not been associated with any cardiovascular side effects
Tmax [4]: ~1 h
dose dependence of pharmacokinetics ([5]; oral administration of increasing doses): dose-proportional linear pharmacokentics
QTc ([5]; single oral doses 2.5-30.0 mg): no significant increase
changes in 12-lead ECG or 24-hour Holter-ECG ([5]; single oral doses 2.5-30.0 mg): no clinically significant changes
changes in vital signs or clinical laboratory ([5]; single oral doses 2.5-30.0 mg): no dose-related clinically relevant changes
serious adverse events ([5]; single oral doses 2.5-30.0 mg): no serious adverse events
severity of adverse events ([5]; single oral doses 2.5-30.0 mg): mild to moderate
safety and tolerability ([5]; single oral doses of 2.5, 5.0, 10.0, 20.0 and 30.0 mg): safe and tolerated
accumulation in plasma with repeated administration ([6]; Day 5 vs Day 1 pharmacokinetics): no accumulation
safety and tolerability ([6]; multiple oral doses of 5, 10 and 20 mg once daily for 5 days): safe and well tolerated
metabolizing enzyme [7]: metabolized predominantly by cytochrome P450 3A4 (CYP3A4)
CYP inhibition [8]: not a potent inhibitor
efficacy for treatment of PTSD ([9]; adjunctive to SSRI, 12 weeks): effective
change in rating scale scores (CAPS, QIDS-SR, CGI-I, PANSS, SDS) ([9]; baseline to end of 12-week treatment, 20-40 mg/d adjunctive to SSRI): significant decline
time spent in the Interaction Zone, treatment alone ([10]; 1 mg/kg IP once daily for 30 d, no defeat, compared with untreated control mice): did not result in differences
time spent in proximity to the intruder after exposure to the intruder paradigm ([10]; 1 mg/kg IP once daily for 30 d, compared with Compound A alone): no significant reduction
effect on social defeat behavior [10, 13]: reversal of social defeat behavior
functional anti-depressant activity [10, 13]: has functional anti-depressant activity
Ki [11]: 173 nM

CNCCC(Oc1ccc(C(F)(F)F)cc1)c1ccccc1 (stereo not drawn) [fluoxetine]
isolation behavior in social defeat/resident intruder model [12]: reversed
